Converted amounts (≈) assume the structure as drawn. “Also recorded” adds a separate entry of the source. Read-outs that look alike come from different tables or passages of the source.
Assays:
[1] = human, in vivo
[2] = test system: BCG (Bacillus of Calmette and Guerin); settings: after a two-hour incubation; free drug
[3] = test system: M. tuberculosis H37Rv; test: BACTEC growth index with Ethambutol with and without MZL; assay type: cell-based, Mycobacterium tuberculosis; settings: for inhibition at 0.0325 µg/mL: 0.0325 μg/ml Ethambutol; for inhibition at 0.0625 µg/mL: 0.0625 μg/ml Ethambutol; for inhibition at 0.125 µg/mL: 0.125 μg/ml Ethambutol; for inhibition at 0.25 µg/mL: 0.25 μg/ml Ethambutol; for inhibition at 0.5 µg/mL: 0.5 μg/ml Ethambutol; for inhibition at 1 µg/mL: 1.0 μg/ml Ethambutol
[4] = test system: melanoma cells (UCT MeI 1 cell line) incubated with fungi; settings: 0.2%
[5] = 20° C. and 2 atm pressure; cited from earlier work
[6] = test system: Plasmodium Falciparum drug resistant reference strain W2; test: Growth of malaria parasites in human erythrocyte cultures (% parasitaemia, Giemsa smears); assay type: cell-based
Source text: The specific parasite investigated was the reference drug resistant strain W2 of the species Plasmodium Falciparum. Plasmodium Falciparum is the most commonly occurring as well as the most virulent malaria parasite currently known in man.
The system used in this investigation aims to mimic the live situation as closely as possible. For that reason, the parasites were infected into fresh primary erythrocytes isolated from O+ or A+ blood donors.
Furthermore, human serum prepared from the same donors was used as an adjuvant instead of foetal calf serum. Parasite growth was maintained by the addition of freshly prepared erythrocytes from the same donors.
The growth of the parasites was determined by visualization of the parasite DNA on thin smears of the infected cultures. Since mature erythrocytes contain no nucleus, and therefore no DNA, the only DNA present was of parasitic origin. Only intracellular parasites were included in determining the percentage parasitaemia, as extracellular parasites are no longer viable.
A. Culturing of Malaria Parasites: • 1. Preparation of fresh human erythrocytes • 2. Preparation of human serum from the same donor. • 3. Quality control of human serum. • 4. Infection of erythrocyte cultures with parasites. Initial infection load was 0.5% parasitaemia. • 5. Maintenance of parasite blood cultures • 6. The parasite percentage in the blood cultures was determined after 36 or 48 hours, depending on the level of infection of the freshly added erythrocytes.
A stock solution of 10 mM chloroquine solution in a 1:250 dilution of nanolipid formulation was made by vortexing and sonication. All concurrent dilutions were from this stock.
D Drug Delivery by MZL Nanolipid Formulations: • 1 Penetrance of nanolipid formulations in red blood cells was determined by microscopic visualization, as were the penetrance of chloroquine-carrying nanolipid formulations. • 2. […] Typically 48-well plates or 96-well plates were used. 200 ul or 100 ul total culture volumes were used respectively, of which 90% of the volume was infected erythrocyte culture. 10% volume was used for the treatment, be it chloroquine in Nanolipid formulation, chloroquine in water, or for the controls 1:250 pure Nanolipid formulation, pure culturing media or water only. • 4. All series were in duplicate.
Parasitic DNA was visualised by Giemsa staining of thin smears. Ethidium bromide or acridine orange may be used for fluorescent staining.
The % infection after applicable incubation periods was determined as follows: […]

[7] = test system: Plasmodium Falciparum drug resistant reference strain W2; settings: read-out: 50% Inhibition concentration value (IC50); free Chloroquine; known value of strain W2; cited from earlier work
[8] = test system: S. Aureus and P. Aeruginosa; test: Zone of inhibition study of Povidone iodine; assay type: cell-based; settings: formulated with the nanolipid vesicles of Preparation 2; 6.30 g Povidone iodine in 100 g; FIG. 2
[9] = test system: HIV subtype D viruses in CD4 helper T-cells (CEM-SS cell line); test: HIV viral load (p24 core antigen ELISA) in infected CD4 helper T-cells; assay type: cell-based, HIV-1
Experimental: The following protocols were followed in this investigation: • a) Several cultures of CD4 helper T-cells (CEM-SS cell line; NIH AIDS Research and Reference Reagent Program) were infected with HIV subtype D viruses at applicable cell seeding densities and viral loads. Cells were maintained in tissue culture under standard culturing conditions. • b) The viral load in cultured cells were determined every day for 7 consecutive days after infection by measuring the p24 core antigen of HIV-1 in the supernatant culturing fluid by ELISA. This assay is based on a colour change after addition of substrate that is proportionate to the viral replication in each culture. The colour change is monitored by absorbance spectrophotometry at 450 nm. Negative control absorbance readings were used to calculate the absorbance/cut-off for each culture. • c) Determination of the optimal concentration of nanolipid-vesicle containing base formulation was done by cytotoxicity assays and cell growth curves. The cytotoxicity assay used was the standard MTT assay and spectrophotometry was once again used to determine cell viability for the CEM-SS cell line. Growth curves were used to determine the optimal concentration of base formulation for human macrophage cells (THP-1 cell line).

[10] = Mycobacterium tuberculosis, H37RV, Minus MZL
[11] = Mycobacterium tuberculosis, H37RV, Plus MZL

## NC(=O)c1cnccn1 [free Pyrazinamide, Pyrazinamide]
[1]
  bioavailability versus comparator Rifafour: enhanced bioavailability
[2]
  BCG-viability: 68-72%

## CC[C@@H](CO)NCCN[C@@H](CC)CO [Ethambutol]
[3]; MZL treated, over the range of 0.03125 μg/ml-0.125 μg/ml Ethambutol
  inhibition maintained with MZL: approx 50%
[3]; Mycobacterium tuberculosis, H37RV
  MIC: ~1 µg/mL (≈ 4.89 µM)
[3]; Mycobacterium tuberculosis, H37RV, Minus MZL, read-out: % Inhibition
  inhibition at 0.0325 µg/mL: -21%
[3]; [10]
  inhibition at 0.0625 µg/mL: -16%
  inhibition at 0.125 µg/mL: -12%
  inhibition at 0.25 µg/mL: 51%
  inhibition at 0.5 µg/mL: 81%
  inhibition at 1 µg/mL: 92%
[3]; [11]
  inhibition at 0.0325 µg/mL: 48%
  inhibition at 0.0625 µg/mL: 49%
  inhibition at 0.125 µg/mL: 52%
  inhibition at 0.25 µg/mL: 51%
  inhibition at 0.5 µg/mL: 62%
  inhibition at 1 µg/mL: 86%

## Clc1ccc(COC(Cn2ccnc2)c2ccc(Cl)cc2Cl)c(Cl)c1 (centres unmarked) [Free Miconazole, Miconazole nitrate]
[4]; 4 hours incubation
  presence of fungi: fungi were still present in large numbers
[4]; 4 hours incubation with fungi, listed as free Miconazole nitrate
  viability / state of human melanoma cells: decline dramatically; also recorded: cells were no longer attached to the petri dish

## [N-]=[N+]=O [Nitrous oxide]
[5]
  solubility in water: one liter of the gas dissolves in 1.5 liters of water

## CCN(CC)CCCC(C)Nc1ccnc2cc(Cl)ccc12 (centres unmarked) [Chloroquine]
[6]; 1 nM chloroquine
  % Parasit: 2.67%
[6]; 5 nM chloroquine
  % Parasit: 2.33%
[6]; 10 nM chloroquine
  % Parasit: 2.96%
[6]; 25 nM chloroquine
  % Parasit: 2.84%
[6]; 50 nM chloroquine
  % Parasit: 2.7%
[6]; 75 nM chloroquine
  % Parasit: 3.33%
[6]; 100 nM chloroquine
  % Parasit: 2.81%
[6]; 200 nM chloroquine
  % Parasit: 2.87%
[6]; 300 nM chloroquine
  % Parasit: 1.8%
[6]; 500 nM chloroquine
  % Parasit: 1.5%
[6]; 1000 nM chloroquine
  % Parasit: 1.4%
[7]
  IC50: 0.2 to 0.3 µM

## NNC(=O)c1ccncc1 [INH, Isoniazid]
[1]
  bioavailability versus comparator Rifafour: enhanced bioavailability

## CO[C@H]1/C=C/O[C@@]2(C)Oc3c(C)c(O)c4c(O)c(c(/C=N/N5CCN(C)CC5)c(O)c4c3C2=O)NC(=O)/C(C)=C\C=C\[C@H](C)[C@H](O)[C@@H](C)[C@@H](O)[C@@H](C)[C@H](OC(C)=O)[C@@H]1C [Rifampicin]
[1]; female
  increase of coverage by the nanolipid delivery system: 180%
  total average increase in bioavailability by Nanolipid delivery system: 227%
[1]; female, po
  Tmax: 1 h

## Povidone iodine
[8]
  inhibition of bacterial growth versus free active: dramatically increased

## Cc1cn([C@H]2C[C@H](N=[N+]=[N-])[C@@H](CO)O2)c(=O)[nH]c1=O [free AZT, AZT]
[9]; 0.1 nM free AZT, by day 7 and 8
  inhibition of viral growth and replication compared to the control: 44%
[9]; dilution of base-formulation 1:256
  AZT concentration at which viral inhibition is optimal: 0.5 to 1 nM

— patent US8329685B1, “Enhancement of the action of anti-infective agents and of central and peripheral nervous system agents and transportation of nucleic acid substances” (priority 2001, dated 2012)
